# Results taken from patent US7112598B2, “κ opioid receptor agonist comprising 2-phenylbenzothiazoline derivative” (Santen Pharmaceutical Co., Ltd., priority 2002, dated 2006).
# Structures can show the parent of a compound that is named as a salt.
# Biological target: human κ opioid receptor (Homo sapiens, UniProt P41145)
# Test: κ opioid receptor agonist activity test in GTP binding activity measurement system ([35S]GTPγS binding)
# Format: biochemical
# Conditions: test compound concentration 10^−9 M; binding of 10^−6 M (−)-U50488 = 100%; human κ opioid receptor membrane preparation; average of duplicate
# Description: 1. κ Opioid Receptor Agonist Activity Tests in GTP Binding Activity Measurement System
# Jinmin Zhu et al. reported a method of evaluating agonist activities of drugs on a κ opioid receptor wherein guanosine 5′-triphosphate (GTP) radiolabelled with a human κ opioid receptor is used in J. Pharmaco. Exp. Ter., 282, 676–684 (1997). κ opioid receptor agonist activities (actions) of test compounds were evaluated according to the method described in the above-mentioned literature.
# N-2-Hydroxyethylpiperazine-N′-2-ethanesulfonic acid (HEPES, 4.77 g), magnesium chloride hexahydrate (2.03 g), sodium chloride (5.84 g), disodium […] (EDTA•2Na, 0.37 g), DL-dithiothreitol (DTT, 0.15 g) and bovine serum albumin (BSA, 1.0 g) were dissolved in ultrapure water, pH was adjusted to 7.4 with sodium hydroxide, and further ultrapure water was added to the mixture so that a total amount was one liter to prepare a incubation buffer.
# Nine volume of the incubation buffer was added to one volume of dimethyl sulfoxide (DMSO) to prepare a 10% DMSO-incubation buffer.
# Tris(hydroxymethyl)aminomethane hydrochloride (TRIZA-HCl, 66.1 g) and Tris(hydroxymethyl)aminomethane (TRIZA-Base, 9.7 g) were dissolved in ultrapure water so that a total amount was 10 liters to prepare a 50 mM Tris-hydrochloric acid buffer (pH 7.4).
# A human κ opioid receptor membrane preparation (100 unit/ml) was diluted 60 times with the incubation buffer under ice-cold to prepare a human κ opioid receptor membrane preparation solution. The membrane preparation solution was preserved under ice-cold.
# A test compound was dissolved in 100% DMSO to prepare a 10^−3 M test compound solution, and then the incubation buffer was added to the 10^−3 M test compound solution to prepare a 10^−4 M test compound solution. Next, the 10% dimethyl sulfoxide-incubation buffer was added to the 10^−4 M test compound solution to prepare a 10^−5 M, 10^−6 M, 10^−7 M, 10^−8 M or 10^−9 M test compound solution.
# A drug (−)-U50488 (J. Pharmacol. Exp. Ther., 224, 7–12 (1983)), which is known as a κ opioid receptor agonist, was used as a positive control drug in the tests.
# (−)-U-50488 was dissolved in 100% DMSO to prepare a 10^−3 M positive control drug solution, and then the incubation buffer was added to the 10^−3 M positive control drug solution to prepare a 10^−4 M positive control drug solution. Next, the 10% DMSO-incubation buffer was added to the 10^−4 M positive control drug solution to prepare a 10^−6 M positive control drug solution.
# GDP was dissolved in ultrapure water to prepare a 10^−3 M GDP solution, and the incubation buffer was added to the 10^−3 M GDP solution to prepare a 10^−5 M GDP solution.
# 10^−3 M [^35S]GTPγS was diluted with the incubation buffer to prepare 10^−9 M radiolabelled reagent.
# • 1. The incubation buffer (50 μl), the 10^−5 M GDP solution (50 μl), the human κ opioid receptor membrane preparation solution (300 μl), the test compound solution and the 10^−9 M radiolabelled reagent (50 μl) were put into a glass tube, and then the mixture was incubated at 30° C. for 60 minutes. • 2. The 50 mM Tris-hydrochloric acid buffer (pH 7.4) was added to the mixture to stop the reaction, the reaction mixture was suction-filtered with a GF/B filter, and then the residue on the GF/B filter was washed with the 50 mM Tris-hydrochloric acid buffer (3 ml) three times. • 3. The GF/B filter was air-dried, and then the residue on the GF/B filter was taken out with an antomatic dispenser and transfered into a vial. • 4. Scintisol EX-H (5 ml) was introduced into the vial to prepare a sample solution, and then radioactivity in the sample solution was measured with a liquid scintillation counter for one minute. The radioactivity was expressed in “cpm” (counts per minute). Calculation Formula of κ Opioid Receptor Agonist Activity
# Each agonist activity of the test compound on the κ opioid receptor was expressed in [^35S]GTPγS binding % when [^35S]GTPγS binding of 10^−6 M (−)-U50488 was 100%. […]
# human κ opioid receptor, sequence (P41145 whole entry): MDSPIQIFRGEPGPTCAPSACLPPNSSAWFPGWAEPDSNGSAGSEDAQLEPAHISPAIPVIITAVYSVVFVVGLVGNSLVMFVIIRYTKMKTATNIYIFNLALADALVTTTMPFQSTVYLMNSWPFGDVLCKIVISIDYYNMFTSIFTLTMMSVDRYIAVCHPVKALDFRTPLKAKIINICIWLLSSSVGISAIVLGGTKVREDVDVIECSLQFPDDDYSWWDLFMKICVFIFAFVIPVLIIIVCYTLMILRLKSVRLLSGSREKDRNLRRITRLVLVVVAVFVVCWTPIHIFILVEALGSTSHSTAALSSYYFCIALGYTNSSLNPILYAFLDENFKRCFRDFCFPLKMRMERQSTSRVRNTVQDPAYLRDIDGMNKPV
row,SMILES,[^35S]GTP γ S binding % [%]
1,"COc1ccc(OCCCN(Cc2cccs2)C(C)C)c(C2Sc3cc(Cl)ccc3N2C(C)=O)c1 (single isomer, unassigned; (+)) [Compound No. 9-4, (+)-3-Acetyl-6-chloro-2-[2-(3-(N-isopropyl-N-(thiophen-2-ylmethyl)-amino)propoxy)-5-methoxyphenyl]benzothiazoline Hydrochloride]",72.1
2,"CCN(CCCOc1ccc(OC)cc1C1Sc2cc(Cl)ccc2N1C(C)=O)C(C)C (single isomer, unassigned; (+)) [Compound No. 9-10, (+)-3-Acetyl-6-chloro-2-[2-(3-(N-ethyl-N-isopropylamino)propoxy)-5-methoxyphenyl]benzothiazoline Hydrochloride]",116.8
3,"COc1ccc(OCCCN(C(C)C)C(C)C)c(C2Sc3cc(Cl)ccc3N2C(C)=O)c1 (single isomer, unassigned; (+)) [Compound No. 9-11, (+)-3-Acetyl-6-chloro-2-[2-(3-(N,N-diisopropylamino)propoxy)-5-methoxyphenyl]benzothiazoline Hydrochloride]",55.0
4,"COc1ccc(OCCCN(C)CCO)c(C2Sc3cc(Cl)ccc3N2C(C)=O)c1 (single isomer, unassigned; (+)) [Compound No. 9-16, (+)-3-Acetyl-6-chloro-2-[2-(3-(N-(2-hydroxyethyl)-N-methylamino)-propoxy)-5-methoxyphenyl]benzothiazoline Hydrochloride]",57.2
5,"COc1ccc(OCCCN(CCO)C(C)C)c(C2Sc3ccccc3N2C(C)=O)c1 (single isomer, unassigned; (+)) [Compound No. 11-3, (+)-3-Acetyl-2-[2-(3-(N-(2-hydroxyethyl)-N-isopropylamino)-propoxy)-5-methoxyphenyl]benzothiazoline Hydrochloride]",85.1
6,"COc1ccc(OCCCN(CCO)CC(C)C)c(C2Sc3cc(Cl)ccc3N2C(C)=O)c1 (stereo not drawn) [Compound No. 3-11, 3-Acetyl-6-chloro-2-[2-(3-(N-(2-hydroxyethyl)-N-(2-methylpropyl)-amino)propoxy)-5-methoxyphenyl]benzothiazoline Hydrochloride]",53.7
7,"COc1ccc(OCCCN2CCC[C@H]2CO)c(C2Sc3cc(Cl)ccc3N2C(C)=O)c1 (stereo partly drawn) [Compound No. 3-12, 3-Acetyl-6-chloro-2-[2-(3-((2S)-2-hydroxymethylazolan-1-yl)propoxy)-5-methoxyphenyl]benzothiazoline Hydrochloride]",75.6
8,"COc1ccc(OCCCN2CC[C@H](O)C2)c(C2Sc3cc(Cl)ccc3N2C(C)=O)c1 (stereo partly drawn) [Compound No. 3-14, 3-Acetyl-6-chloro-2-[2-(3-((3S)-hydroxyazolan-1-yl)propoxy)-5-methoxyphenyl]benzothiazoline Hydrochloride]",59.8
9,"COc1ccc(OCCCN(CCO)C(C)C)c(C2Sc3ccc(C(F)(F)F)cc3N2C(C)=O)c1 (stereo not drawn) [Compound No. 4-2, 3-Acetyl-2-[2-(3-(N-(2-hydroxyethyl)-N-isopropylamino)propoxy)-5-methoxyphenyl]-5-trifluoromethylbenzothiazoline Hydrochloride]",65.1

# Same assay, conditions: test compound concentration 10^−9 M; binding of 10^−6 M (−)-U50488 = 100%; human κ opioid receptor membrane preparation; average of duplicate; Hydrochloride
row,SMILES,[^35S]GTP γ S binding % [%]
1,"COCCN(CCCOc1ccc(OC)cc1C1Sc2cc(Cl)ccc2N1C(C)=O)C(C)C.Cl (single isomer, unassigned; (+)) [Compound No. 9-1, (+)-3-Acetyl-6-chloro-2-[2-(3-(N-isopropyl-N-(2-methoxyethyl)amino)-propoxy)-5-methoxyphenyl]benzothiazoline Hydrochloride]",93.2
2,"COc1ccc(OCCCN(CCO)C(C)C)c(C2Sc3cc(Cl)ccc3N2C(C)=O)c1 (single isomer, unassigned; (+)) [Compound No. 9-2, (+)-3-Acetyl-6-chloro-2-[2-(3-(N-(2-hydroxyethyl)-N-isopropylamino)-propoxy)-5-methoxyphenyl]benzothiazoline Hydrochloride]",103.9
3,"CCOCCN(CCCOc1ccc(OC)cc1C1Sc2cc(Cl)ccc2N1C(C)=O)C(C)C (single isomer, unassigned; (+)) [Compound No. 9-3, (+)-3-Acetyl-6-chloro-2-[2-(3-(N-(2-ethoxyethyl)-N-isopropylamino)-propoxy)-5-methoxyphenyl]benzothiazoline Hydrochloride]",117.5
4,"COc1ccc(OCCCN(Cc2ccco2)C(C)C)c(C2Sc3cc(Cl)ccc3N2C(C)=O)c1 (single isomer, unassigned; (+)) [Compound No. 9-5, (+)-3-Acetyl-6-chloro-2-[2-(3-(N-(furan-2-ylmethyl)-N-isopropylamino)propoxy)-5-methoxyphenyl]benzothiazoline Hydrochloride]",132.5
5,"COCCN(CCCOc1ccc(OC)cc1C1Sc2cc(Cl)ccc2N1C(C)=O)C(C)C.Cl (single isomer, unassigned; (-)) [Compound No. 10-1, (−)-3-Acetyl-6-chloro-2-[2-(3-(N-isopropyl-N-(2-methoxyethyl)amino)-propoxy)-5-methoxyphenyl]benzothiazoline Hydrochloride]",50.5
6,"COc1ccc(OCCCN(CCO)C(C)C)c(C2Sc3cc(Cl)ccc3N2C(C)=O)c1 (single isomer, unassigned; (-)) [Compound No. 10-2, (−)-3-Acetyl-6-chloro-2-[2-(3-(N-(2-hydroxyethyl)-N-isopropylamino)-propoxy)-5-methoxyphenyl]benzothiazoline Hydrochloride]",65.8
7,"CCOCCN(CCCOc1ccc(OC)cc1C1Sc2cc(Cl)ccc2N1C(C)=O)C(C)C (single isomer, unassigned; (-)) [Compound No. 10-3, (−)-3-Acetyl-6-chloro-2-[2-(3-(N-(2-ethoxyethyl)-N-isopropylamino)-propoxy)-5-methoxyphenyl]benzothiazoline Hydrochloride]",55.7
8,"COc1ccc(OCCCN(Cc2ccco2)C(C)C)c(C2Sc3cc(Cl)ccc3N2C(C)=O)c1 (stereo not drawn) [Compound No. 3-38, 3-Acetyl-6-chloro-2-[2-(3-(N-(furan-2-ylmethyl)-N-isopropylamino)-propoxy)-5-methoxyphenyl]benzothiazoline Hydrochloride]",58.4

# Same assay, conditions: test compound concentration 10^−9 M; binding of 10^−6 M (−)-U50488 = 100%; human κ opioid receptor membrane preparation; average of duplicate; read-out: [^35S]GTP γ S binding %
row,SMILES,activation at 0.001 µM [%]
1,"COCCN(CCCOc1ccc(OC)cc1C1Sc2ccccc2N1C(C)=O)C(C)C (stereo not drawn) [Compound No. 8-1, 3-Acetyl-2-[2-(3-(N-isopropyl-N-(2-methoxyethyl)amino)propoxy)-5-methoxyphenyl]benzothiazoline Hydrochloride]",103

# System: mouse acetic acid writhing
# Test: Antinociceptive action test by mouse acetic acid writhing method
# Format: in vivo
# Conditions: 30 mg/kg oral, 20 min before 0.7% acetic acid i.p., writhing counted 10 to 20 minutes after acetic acid, vs vehicle group, average of seven samples, Hydrochloride, 30 mg/kg
# Description: 2. Antinociceptive Action Tests by Mouse Acetic Acid Writhing Method
# Accordingly, antinociceptive action tests of test compounds were carried out using the mouse acetic acid writhing method, and analgesic effects of the test compounds were evaluated.
# Twenty minutes after oral administration of the test compound (30 mg/kg), the 0.7% acetic acid solution was administered intraperitoneally in a rate of 0.1 ml per 10 g of mouse weight.
# Inhibition rates were calculated according to the following equation.
# The antinociceptive action of the test compound was expressed in an inhibition rate to writhing numbers of a vehicle group.
row,SMILES,Inhibition rate (%)
1,"COc1ccc(OCCCN(CCO)C(C)C)c(C2Sc3cc(Cl)ccc3N2C(C)=O)c1 (single isomer, unassigned; (+)) [Compound No. 9-2, (+)-3-Acetyl-6-chloro-2-[2-(3-(N-(2-hydroxyethyl)-N-isopropylamino)-propoxy)-5-methoxyphenyl]benzothiazoline Hydrochloride]",81.2
2,"CCOCCN(CCCOc1ccc(OC)cc1C1Sc2cc(Cl)ccc2N1C(C)=O)C(C)C (single isomer, unassigned; (+)) [Compound No. 9-3, (+)-3-Acetyl-6-chloro-2-[2-(3-(N-(2-ethoxyethyl)-N-isopropylamino)-propoxy)-5-methoxyphenyl]benzothiazoline Hydrochloride]",100.0

# Same assay, conditions: 30 mg/kg oral, 20 min before 0.7% acetic acid i.p., writhing counted 10 to 20 minutes after acetic acid, vs vehicle group, average of seven samples, read-out: Inhibition rate (%)
row,SMILES,inhibition in vivo at 30 mg/kg [%]
1,"COCCN(CCCOc1ccc(OC)cc1C1Sc2cc(Cl)ccc2N1C(C)=O)C(C)C.Cl (single isomer, unassigned; (+)) [Compound No. 9-1, (+)-3-Acetyl-6-chloro-2-[2-(3-(N-isopropyl-N-(2-methoxyethyl)amino)-propoxy)-5-methoxyphenyl]benzothiazoline Hydrochloride]",97.7
